Patent US5336485A, “Method for protecting animals against tacrine induced cytotoxic injury using sterol compounds” (priority 1993, dated 1994)
Structures can show the parent of a compound that is named as a salt. Where two headings read alike, the source gives them in different places.

Experiments:
male Sprague-Dawley rats = test: CCl4 induced lethality in rats; format: in vivo, rat; conditions: for Survival after CCl4 treatment: 100 mg/kg ip 24 h prior, […] CCl4 oral; for Days Survived after CCl4: 24 and 1 hour prior
Procedure: The in vivo effect of alpha-TS was tested by administering a lethal oral dose of carbon tetrachloride (CC14) to male Sprague-Dawley rats.
In the experiment described in Table 3, a single dose of alpha-TS dissolved in peanut oil:ethanol (3:2) was given to male Sprague-Dawley rats. The dose was given 24 hours prior to an orally administered CCl4 challenge dissolved in peanut oil. Two to nine animals were tested per treatment. The control group comprised rats pretreated with the vehicle only. Survival was monitored for at least 7 days after the toxic insult.
In vivo experiments were performed to determine if the time the ionizable tocopherol analog (alpha-TS) is administered affects the cytoprotective functions. Male Sprague-Dawley rats were given a 100 mg/kg intraperitoneal dose of a tocopherol or succinate analog and were given a lethal dose of CCl4 (2.9g/kg by oral gavage). Table 7 contrasts the times of administration of the tocopherol or succinate analog and the times of administration of the lethal dose of CCl4 with the survival of the rats in the study (3to 6 rats per protective treatment).
Several tocopherol and succinate analogs were tested for CCl4 induced lethality. A single dose of the tocopherol or succinate analog was administered twenty four hours prior to orally administering 2.9 g CCl4 /kg body weight. Three to six animals were analyzed per treatment. The rats were monitored for seven days. […]

rat hepatocytes [1] = test: EMS-induced cytotoxicity (LDH leakage/cell death) in rat hepatocyte suspensions; conditions: for inhibition at 25 µM: Rattus norvegicus, Hepatocyte; for inhibition at 25 µM / Percent Cytoprotection: 5 h; for Cell Death: 5 Hrs, alpha-TS 25, methyl ester 50, cholesteryl succinate 100, monomethyl/dimethyl succinate 250 μM
Procedure: To determine if alpha-TS is a cytoprotective agent under physiological conditions, liver cells were incubated with Waymouth's medium containing approximately 1 mM extracellular Ca^2+ in the presence and absence of alpha-TS.
(§1) At each time-point, rapid separation of viable from non-viable hepatocytes and medium was accomplished by the dibutyl phthalate centrifugation method. Cell viability was monitored hourly by measuring LDH leakage with a Cobas Analyzer and intracellular [K^+ ]with a flame photometer. LDH was routinely measured in the medium while intracellular K^+ was measured in the 10% perchloric acid lysate of viable cells. Lipid peroxidation was determined by measuring TBA reactants in the medium. […] The samples were diluted with 0.3 ml 1% ascorbate in 0.1 M SDS, 0.4 ml ethanol, sonicated and extracted once with 0.8 ml hexane. Next, the hexane extract was evaporated to dryness with N2, the residue dissolved in 2.5% ascorbate in methanol (1 ml) and analyzed (100 μl) by high-performance liquid chromatograph (HPLC). […] The mobile phase, 95% MeOH was run isocratically and the HPLC retention times for delta and alpha-tocopherol were approximately eleven and sixteen minutes, respectively. […] Following the addition of 0.2 ml 4 M HC1, the neutralized KOH-MeOH extracted with 0.8 ml hexane. […] A standard curve for each tocopherol congener was run with every assay. […] Only viable cells were monitored in the laboratory procedures.
To determine the relative cytoprotective potency of various tocopherol derivatives, the effect of varying doses of a tocopherol analog on the protection against EMS-induced toxicity was examined in vitro on rat hepatocyte suspensions. Specifically, the following ionizable tocopherol congeners were tested: alpha-TS, alpha tocopheryl glutarate (alpha-TG), and alpha tocopheryl phosphate (alpha-TP). […] 0.1 nmoles is the lower detection limit.
In vitro experiments were conducted with a variety of different tocopherol and succinate analogs to determine which were protective against EMS induced toxicity. After five hours of incubation with 50 mM EMS and 25μM of a tocopherol or succinate analog, cytoprotection was determined by comparing the percentage of LDH leakage from control hepatocytes (vehicle only, assumed 100% protection) with the EMS only treated cells (assumed 0% protection).
An in vitro experiment with rat hepatocyte suspensions was performed to determine the effect of esterase inhibitors on alpha-TS.
(§2) Rat hepatocyte suspensions were subjected to 50 mM EMS and the percentage of cell death, the percentage of intracellular K^+ (a metabolic parameter as discussed above), the depletion of ATP and the effect on lipid peroxidation were monitored.

rat hepatocytes [2] = test: EMS-induced lipid peroxidation in rat hepatocyte suspensions; format: cell-based; conditions: 50 mM EMS, 5 Hrs; concentrations as cell death (Table 15)
Procedure: as §1, §2

[3] = Tissue distribution of alpha-tocopherol and alpha-tocopherol ester in rats; format: in vivo, rat; conditions: K+ salt in saline, 1 dose 100 mg/kg, 24 h
Procedure: 100 mg/kg body weight of a tocopherol analog was administered to Sprague-Dawley rats using a peanut oil:ethanol vehicle (3:2). Twenty four hours later the rats were sacrificed and the accumulation of the tocopherol analog in the liver was determined.
A similar in vivo experiment to that discussed in conjunction with Table 5 was performed to determine if other tissues accumulate alpha-TS. Male Sprague-Dawley rats were given a 100 mg/kg dose of alpha-TS using a variety of chemical forms and vehicles. A variety of techniques were used to administer the alpha-TS. Twenty four hours later the rats were sacrificed and the tissues were tested for alpha-TS accumulation.

liver = test: CCl4 induced hepatotoxicity in rats (serum AST/ALT); format: in vivo, rat
Procedure: In vivo experiments were performed to determine if alpha-TS administration protects the liver from chemical toxicity. The liver is the target organ for CCl4. CCl4 is a hepatotoxic agent that induces centrilobular liver necrosis through its metabolism to free radicals. Male Sprague-Dawley rats were given an intraperitoneal dose (100 mg/kg) of a tocopherol analog 24 hours prior to a CCl4 challenge (2.9g/kg given by oral garage). Forty eight hours after the challenge, the rats were sacrificed and the levels of aspartate aminotransferase (AST) and alanine aminotransferase (ALT) were measured.
As discussed above, SGOT levels provide a clinical assessment of hepatotoxicity (liver damage).
Succinate analogs were administered to male Sprague-Dawley rats 20 hours prior to a 1 g CCl4 /kg body weight oral challenge and the AST and ALT serum enzyme levels were measured 48 hours after the challenge.
Similar to the experiments were described above, the ionizable congeners were administered to Sprague-Dawley rats by i.p. injection of a 100 mg ionizable congener/kg body weight dose 20 hours prior to oral administration of a 1 g/kg dose of CCl4, and the AST and ALT levels were measured 48 hours after the CCl4 challenge.

[4] = 100 mg/kg, single dose 24 h prior, CCl4 […]
[5] = read-out: Percent Cytoprotection, 25 μM, 50 mM EMS, 5 h
[6] = 1 g/kg, single dose 24 h prior, CCl4 […]
[7] = 100 mg/kg ip, 48 h after 1 g/kg CCl4 (Table 31)

## Cc1c(C)c2c(c(C)c1OC(=O)CCCC(=O)O)CCC(C)(CCCC(C)CCCC(C)CCCC(C)C)O2 (stereo not drawn) [Alpha-Tocopherol Glutarate, alpha-tocopherol monoglutarate]
Male Sprague-Dawley rats
  Survival after CCl4 treatment: No
Male Sprague-Dawley rats; [4]
  Days Survived After CCl4 Treatment: 2 days
Rat hepatocytes [1]; [5]
  inhibition at 25 µM: 55 ± 15%

## COC(=O)CCC(=O)O [Monomethyl Succinate, reference compound]
Rat hepatocytes [2]
  Lipid Peroxidation: 12.8 ± 1.0 nmolMDA/10^6 cells
Male Sprague-Dawley rats; 1 g/kg
  Days Survived after CCl4: 2 days
Male Sprague-Dawley rats; [6]
  Days Survived After CCl4 Treatment: 2 days
Rat hepatocytes [1]; 50 mM EMS
  Cell Death: 61 ± 5%

## COC(=O)CCC(=O)OC [Dimethyl Succinate, reference compound]
Rat hepatocytes [2]
  Lipid Peroxidation: 12.6 ± 0.2 nmolMDA/10^6 cells
Male Sprague-Dawley rats; 1 g/kg
  Days Survived after CCl4: 2 days
Male Sprague-Dawley rats; [6]
  Days Survived After CCl4 Treatment: 2 days
Male Sprague-Dawley rats; rat, in vivo
  cytoprotection (Table 7, in words): not cytoprotective
Rat hepatocytes [1]; 50 mM EMS
  Cell Death: 60 ± 1%

## Cc1c(C)c2c(c(C)c1OC(=O)CCC(=O)O)CC[C@@](C)(CCC[C@H](C)CCC[C@H](C)CCCC(C)C)O2 [K + salt of Alpha-TS, Alpha-Tocopherol Succinate, K^+ Salt]
[3]; (c) ip
  alpha-TS, Blood: 19 nmoles/gm of Tissue
  alpha-TS, Heart: 18 nmoles/gm of Tissue
  alpha-TS, Kidney: 15 nmoles/gm of Tissue
  alpha-TS, Liver: 518 nmoles/gm of Tissue
  alpha-TS, Lung: 60 nmoles/gm of Tissue
  alpha-TS, Plasma: 24 nmoles/gm of Tissue
[3]; (d) iv
  alpha-TS, Blood: 18 nmoles/gm of Tissue
  alpha-TS, Heart: 24 nmoles/gm of Tissue
  alpha-TS, Kidney: 27 nmoles/gm of Tissue
  alpha-TS, Liver: 445 nmoles/gm of Tissue
  alpha-TS, Lung: 385 nmoles/gm of Tissue
  alpha-TS, Plasma: 30 nmoles/gm of Tissue
Male Sprague-Dawley rats; [4]
  Days Survived After CCl4 Treatment: > 7 days
Rat hepatocytes [1]; 25 μM, 50 mM EMS, K^+ Salt, 300 min, 25 µM
  Percent Cytoprotection: 97 ± 3%

## Cc1c(C)c2c(c(C)c1OC(=O)CC(C)C(=O)O)CC[C@@](C)(CCC[C@H](C)CCC[C@H](C)CCCC(C)C)O2 (stereo partly drawn) [Alpha-Tocopherol 3-Methyl Succinate, alpha-tocopheryl 3-methyl succinate]
Male Sprague-Dawley rats
  Survival after CCl4 treatment: No
Male Sprague-Dawley rats; [4]
  Days Survived After CCl4 Treatment: 2 days
Rat hepatocytes [1]; [5]
  inhibition at 25 µM: 70 ± 9%

## Cc1c(C)c2c(c(C)c1OC(=O)CCC(N)=O)CC[C@@](C)(CCC[C@H](C)CCC[C@H](C)CCCC(C)C)O2 [Alpha-Tocopherol Succinamide]
Rat hepatocytes [1]; [5]
  inhibition at 25 µM: 0%

## d-alpha-tocopheryl polyethylene glycol 1,000 succinate
Male Sprague-Dawley rats; 200 mg/Kg, iv, 24 h prior
  Days Survived After CCl4 Treatment: > 7 days
Male Sprague-Dawley rats; 200 mg/kg, oral, 24 h prior
  Days Survived After CCl4 Treatment: 2 days
Male Sprague-Dawley rats; 100 or 200 mg/Kg, single dose 24 h prior
  Days Survived After CCl4 Treatment: > 7 days
Rat hepatocytes [1]; 25 μM, 50 mM EMS
  Percent Cytoprotection: 80 ± 15%
Rat hepatocytes [1]; rat hepatocytes, 25 μM, 50 mM EMS
  protection from lethal effects of EMS: protection was observed against EMS-induced toxicity

## CC(C)CCC[C@@H](C)[C@H]1CC[C@H]2[C@@H]3CC=C4C[C@@H](O)CC[C@]4(C)[C@H]3CC[C@]12C [Cholesterol, reference compound]
liver; [7]
  ALT: 1.16 ± 0.41 10^3 units/L
  AST: 3.03 ± 0.84 10^3 units/L
liver; 100 mg/kg ip, 48 h after 1.0 g/kg CCl4
  SGOT Levels: 4.08 ± 2.45 10^3 units/L
liver; rats, serum enzyme levels
  protection against CCl4 hepatotoxicity (in words): provided no protection
Male Sprague-Dawley rats
  Survival after CCl4 treatment: No
Male Sprague-Dawley rats; [4]
  Days Survived After CCl4 Treatment: 2 days
Rat hepatocytes [1]; [5]
  inhibition at 25 µM: 30 ± 16%

## Cc1cc(OC(=O)CCC(=O)O)cc2c1OC(C)(CCCC(C)CCCC(C)CCCC(C)C)CC2 (centres unmarked) [Delta-Tocopherol Succinate, Delta-tocopherol mono succinate]
Rat hepatocytes [1]; [5]
  inhibition at 25 µM: 70 ± 24%

## Cc1cc(O)cc2c1OC(C)(CCCC(C)CCCC(C)CCCC(C)C)CC2 (centres unmarked) [Delta-Tocopherol, reference compound]
Rat hepatocytes [1]; read-out: Percent Cytoprotection
  inhibition at 25 µM: 0%
